Data: patent publication US5622955A, “Methods of treating cryptosporidium parvum” (The University of North Carolina at Chapel Hill, priority 1995, dated 1997)
Structures can show the parent of a compound that is named as a salt. Where two headings read alike, the source gives them in different places.

Tests used:
Pneumocystis carinii [1] = assay: In vivo Activity Against Pneumocystis carinii in Rats; details: saline = 100%
G. lamblia = assay: 50% inhibitory concentration against G. lamblia; assay type: cell-based
From the text: ^d 50% Inhibitory concentration against G. lamblia, P. carinii
topoisomerase. See, Bell, et al., supra.

[2] = target: T1, topoisomerase II isolated from P. carinii (Pneumocystis carinii, UniProt A0A0W4ZKQ4); assay: Inhibition of topoisomerase II isolated from P. carinii; assay type: biochemical
T1 construct: homodimer
T1 sequence (A0A0W4ZKQ4 1-1493): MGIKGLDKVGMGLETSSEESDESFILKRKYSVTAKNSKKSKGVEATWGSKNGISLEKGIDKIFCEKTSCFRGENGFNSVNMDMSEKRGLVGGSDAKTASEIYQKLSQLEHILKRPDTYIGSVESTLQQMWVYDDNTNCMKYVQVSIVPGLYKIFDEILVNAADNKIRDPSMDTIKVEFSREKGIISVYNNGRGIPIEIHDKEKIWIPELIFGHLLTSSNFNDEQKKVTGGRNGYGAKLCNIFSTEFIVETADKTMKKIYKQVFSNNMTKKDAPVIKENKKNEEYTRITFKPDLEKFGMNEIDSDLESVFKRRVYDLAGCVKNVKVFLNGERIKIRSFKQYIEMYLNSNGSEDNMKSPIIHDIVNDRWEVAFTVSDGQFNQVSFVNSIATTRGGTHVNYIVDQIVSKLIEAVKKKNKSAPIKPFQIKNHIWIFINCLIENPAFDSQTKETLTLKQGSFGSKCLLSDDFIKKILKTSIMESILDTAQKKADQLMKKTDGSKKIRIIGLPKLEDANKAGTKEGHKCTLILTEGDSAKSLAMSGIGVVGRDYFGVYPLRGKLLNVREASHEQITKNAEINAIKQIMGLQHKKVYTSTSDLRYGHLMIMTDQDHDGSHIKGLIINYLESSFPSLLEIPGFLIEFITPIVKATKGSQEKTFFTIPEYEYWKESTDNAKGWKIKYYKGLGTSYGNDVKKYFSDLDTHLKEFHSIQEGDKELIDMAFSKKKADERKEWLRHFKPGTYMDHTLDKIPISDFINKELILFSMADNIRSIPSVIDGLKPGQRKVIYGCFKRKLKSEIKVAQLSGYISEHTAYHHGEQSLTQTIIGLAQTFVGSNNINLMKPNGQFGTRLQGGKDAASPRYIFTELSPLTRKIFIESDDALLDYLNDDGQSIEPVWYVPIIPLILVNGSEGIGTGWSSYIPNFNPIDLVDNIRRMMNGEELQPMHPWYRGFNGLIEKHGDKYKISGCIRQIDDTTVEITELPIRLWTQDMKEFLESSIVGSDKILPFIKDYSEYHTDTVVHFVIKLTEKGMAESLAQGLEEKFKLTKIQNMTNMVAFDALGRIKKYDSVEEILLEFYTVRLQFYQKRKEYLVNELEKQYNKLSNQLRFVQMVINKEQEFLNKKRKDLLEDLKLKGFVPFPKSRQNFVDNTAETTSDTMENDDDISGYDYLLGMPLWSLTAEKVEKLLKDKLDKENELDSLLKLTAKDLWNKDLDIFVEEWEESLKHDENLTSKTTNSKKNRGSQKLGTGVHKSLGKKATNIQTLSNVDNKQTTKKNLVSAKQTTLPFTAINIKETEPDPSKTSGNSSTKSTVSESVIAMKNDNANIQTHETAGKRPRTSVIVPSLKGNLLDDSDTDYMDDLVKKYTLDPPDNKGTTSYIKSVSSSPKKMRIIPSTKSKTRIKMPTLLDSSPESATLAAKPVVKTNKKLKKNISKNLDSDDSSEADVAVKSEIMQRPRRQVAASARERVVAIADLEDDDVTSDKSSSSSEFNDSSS
From the text: ^c Inhibition of topoisomerase II isolated from P. carinii. See, C.
Dykstra, et al., J. Protozool. 38:78S (1991).

poly dA.dT = assay: DNA binding: increase in thermal melting of poly dA.dT
From the text: ^a Increase in thermal melting of poly dA.dT. See, W. Wilson, et al.,

C. Parvum = assay: Inihibition of C. Parvum; assay type: in vivo
Pneumocystis carinii [3] = details: rat, in vivo
[4] = Giardia duodenalis; read-out: G. lamblia IC50

IC50 (G. lamblia; [4]) [nM] | Compound | cyst/g Lung (Pneumocystis carinii [1]; 5.0 mg/Kg per day) [%] | cyst/g Lung (Pneumocystis carinii [1]; 2.5 mg/Kg per day) [%] | DNA binding (Increase in thermal melting of poly dA.dT) (poly dA.dT) | Toxicity (Pneumocystis carinii [3]; 5 mg/kg/day) | other results
2000 | c1ccc(-c2nccc(-c3ccc(C4=NCCN4)cc3)n2)cc1 [Compound 4, 2phenyl-4-[4(imidazolin-2-yl)phenyl]pyrimidine hydrochloride] | 21.1 | – | – | – | –
36700 | COc1cc(C(=N)NC(C)C)ccc1-c1ccnc(-c2ccc(C(=N)NC(C)C)cc2)n1 [Compound 5, 2-(4-[N-i-propylguanyl]phenyl)-4-(2-methoxy-4-[N-i-propylguanyl]phenyl)pyrimidine] | – | 1.0 | 13.9 | – | Topoisomerase P. Carinii (Inhibition of topoisomerase II isolated from P. carinii) [2]: no
790 | c1cc(-c2ccc(C3=NCCCN3)cc2)nc(-c2ccc(C3=NCCCN3)cc2)n1 [Compound 3, 2,4Bis[(4tetrahydropyrimmidinyl-2-yl)phenyl]pyrimidine hydrochloride] | – | 85.2 | 25 | – | –

The next lines start with the molecule.

Compound | IC50 (G. lamblia; [4]) [nM] | cyst/g Lung (Pneumocystis carinii [1]; 5.0 mg/Kg per day) [%] | cyst/g Lung (Pneumocystis carinii [1]; 2.5 mg/Kg per day) [%] | DNA binding (Increase in thermal melting of poly dA.dT) (poly dA.dT) | Toxicity (Pneumocystis carinii [3]; 5 mg/kg/day) | other results
Cl.N=C(N)c1ccc(-c2ccnc(-c3ccc(C(=N)N)cc3)n2)cc1 [Compound 1, 2,4-Bis-(4-guanylphenyl)pyrimidine hydrochloride] | 2000 | 2.4 | – | 21.5 | 0 | cyst/g Lung (Pneumocystis carinii [1]; 10.0 mg/Kg per day): 0.8%; % efficacy (C. Parvum; 0.1 mg/kg/day): 30%; % efficacy (C. Parvum; 5 mg/kg/day): 68%; % efficacy (C. Parvum; 25 mg/kg/day): 50%; Toxicity (Pneumocystis carinii [3]; 10 mg/kg/day): 1+
N=C(N)c1ccc(OCCCCCOc2ccc(C(=N)N)cc2)cc1 [Pentamidine, reference compound] | – | – | – | 12.8 | – | IC50 (G. lamblia; Giardia duodenalis, read-out: G. lamblia IC50): 2600 nM
c1cc(-c2ccc(C3=NCCN3)cc2)nc(-c2ccc(C3=NCCN3)cc2)n1 [Compound 2, 2,4Bis[(4imidazolin-2-yl)phenyl]pyrimidine hydrochloride] | 3000 | 2.4 | – | – | 0 | –
